Experimental data: patent US12371404B2, “Fused bicyclic alkylene linked imidodicarbonimidic diamides, methods for synthesis, and uses in therapy” (NovaTarg, Inc., priority 2016, dated 2025)
Structures can show the parent of a compound that is named as a salt.

How the values were obtained:
human PMAT = target: T1, human PMAT (Homo sapiens, UniProt Q7RTT9); assay: Oxygen consumption rate (OCR) assay, HEK293 cells transfected with PMAT; format: cell-based; conditions: HEK293 cells with human PMAT; 10 μM
T1 construct: expressed in transfected cells; host or cells: HEK293
T1 sequence (Q7RTT9 1-530): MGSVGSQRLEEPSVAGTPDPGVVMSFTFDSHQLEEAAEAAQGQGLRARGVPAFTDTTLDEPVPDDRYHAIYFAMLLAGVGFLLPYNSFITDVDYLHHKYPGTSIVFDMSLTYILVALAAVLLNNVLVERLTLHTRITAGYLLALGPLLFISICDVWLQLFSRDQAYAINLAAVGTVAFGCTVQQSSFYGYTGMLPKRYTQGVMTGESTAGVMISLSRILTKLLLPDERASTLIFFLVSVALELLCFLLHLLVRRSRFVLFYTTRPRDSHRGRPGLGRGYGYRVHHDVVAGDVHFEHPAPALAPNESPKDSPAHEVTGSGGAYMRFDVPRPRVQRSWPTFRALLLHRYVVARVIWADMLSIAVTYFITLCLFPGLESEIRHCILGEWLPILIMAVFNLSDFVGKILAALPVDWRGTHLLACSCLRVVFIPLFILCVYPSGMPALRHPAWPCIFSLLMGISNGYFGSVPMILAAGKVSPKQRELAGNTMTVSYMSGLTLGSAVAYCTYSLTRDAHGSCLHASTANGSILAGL
Source text: (§1) Diabetologia 2011, 54 (12): 3101-3110, each incorporated by reference with regard to such testing. The compounds of the present invention are similarly tested in an oxygen consumption rate (OCR) assay to evaluate the functional activity of test compounds in cells.
(§2) In brief, the assay uses HEK293 cells stably transfected with the human OCT1, OCT2, OCT3, PMAT, or MATE1 transporters to determine a compound's relative transporter selectivity and its effect on the rate of oxygen consumption relative to control (Neo) cells. The MitoXpress Xtra oxygen-sensitive fluorophore is used to monitor oxygen consumption rates in the presence and absence of compound treatments. The analogs were tested at eight (8) different concentrations in triplicate to determine a relative IC50 value.
(§3) A summary description of the protocol is as follows:
(§4) HEK293 cells transformed with human organic cation transporters were plated in collagen coated, 96-well black-walled microclear plates (Greiner-Bio 1, #655956) at 60,000 cells per well in growth medium (DMEM (LG), 10% FBS, 400 μg/ml G418). Cells were incubated overnight to allow attachment. The outer columns (1 and 12) are not seeded with cells, as controls. The next day, plating medium was removed and replaced with 150 μL of assay medium (DMEM/F12 (PRF), 5% FBS, antibiotics) containing compound dilutions. A 3-fold serial dilution was prepared in the assay medium and transferred to the empty wells. The outer columns and column 11 received 150 μL of assay medium only. 10 μL of MitoXpress Xtra reagent was added to each test well, and 100 μL of pre-warmed mineral oil was overlayed in each well to create a seal. Dual read time-resolved fluorescence (BMG FluoStar Galaxy reader) was measured over 2 hours with measurements taken every 2 minutes. Excitation is 340 nm, Emission is 650 nm. For lifetime analysis, two measurements per well were taken: 1) delay of 30 μs, with a window of 30 μs; and 2) delay of 70 μs with a window of 30 μs. Background TRF values from A1-D1 were subtracted from all readings. A ratiometric analysis was performed to determine changes in the Lifetime fluorescence signal:Lifetime (μs) [T]=(D2−D1)/ln(W1/W2), where D is delay; W is fluorescence window value at each time point. Lifetime slopes were calculated using each Lifetime measurement over time. IC50 values were determined by plotting lifetime slope values vs. compound concentration.

human MATE1 = target: T2, human MATE1 (Homo sapiens, UniProt Q96FL8); assay: Oxygen consumption rate (OCR) assay, HEK293 cells transfected with MATE1; conditions: for inhibition at 1000 µM: HEK293, read-out: Oxygen Consumption Rate (OCR), MATE 1, % Inhibition at 1000 μM test concentration
T2 sequence (Q96FL8 1-570): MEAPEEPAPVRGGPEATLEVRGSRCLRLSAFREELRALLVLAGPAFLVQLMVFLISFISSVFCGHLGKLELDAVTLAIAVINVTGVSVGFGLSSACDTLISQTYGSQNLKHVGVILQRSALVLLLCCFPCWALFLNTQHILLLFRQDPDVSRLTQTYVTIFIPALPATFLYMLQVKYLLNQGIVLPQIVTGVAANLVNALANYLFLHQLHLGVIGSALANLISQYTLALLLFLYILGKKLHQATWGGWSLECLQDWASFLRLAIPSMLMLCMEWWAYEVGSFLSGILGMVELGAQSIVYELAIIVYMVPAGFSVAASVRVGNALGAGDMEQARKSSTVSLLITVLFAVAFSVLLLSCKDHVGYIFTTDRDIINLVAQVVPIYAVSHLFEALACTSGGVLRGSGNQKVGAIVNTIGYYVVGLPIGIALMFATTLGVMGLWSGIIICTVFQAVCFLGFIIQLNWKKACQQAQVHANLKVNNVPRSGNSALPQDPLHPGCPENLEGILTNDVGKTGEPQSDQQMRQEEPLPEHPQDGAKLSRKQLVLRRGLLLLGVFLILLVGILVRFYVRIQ
Source text: The compounds of the present invention are similarly tested in an oxygen consumption rate (OCR) assay to evaluate the functional activity of test compounds in cells.
as §2, §3
as §4, with “Cells” for “HEK293 cells transformed with human organic cation transporters were plated in collagen coated, 96-well black-walled microclear plates (Greiner-Bio 1, #655956) at 60,000 cells per well in growth medium (DMEM (LG), 10% FBS, 400 μg/ml G418). Cells”

control (Neo) cells = assay: Oxygen consumption rate (OCR) assay, control (Neo) HEK293 cells; format: cell-based; conditions: Homo sapiens; control (Neo) HEK293 cells; MitoXpress Xtra, 2 hours; read-out: Oxygen Consumption Rate (OCR) IC50, Neo
Source text: as §1, §2, §3, §4

Row | SMILES | inhibition at 10 µM (human PMAT) | IC50 (human MATE1) | IC50 (control (Neo) cells) | inhibition at 1000 µM (human MATE1)
1 | Cn1cc(CCNC(=N)NC(=N)N)c2cc(F)ccc21 [Ex 4, 1-[2-(5-fluoro-1-methyl-1H-indol-3-yl)ethyl]imidodicarbonimide diamide] | 41% | 1570 µM | 678 µM | –
2 | CC(Cc1c[nH]c2ccc(F)cc12)NC(=N)NC(=N)N (stereo not shown) [Ex 5, 1-[1-(5-fluoro-1H-indol-3-yl)propan-2-yl]imidodicarbonimide diamide] | 12% | – | 1880 µM | 65%
3 | CC(Cc1cn(C)c2ccc(F)cc12)NC(=N)NC(=N)N (stereo not shown) [Ex 6, 1-[1-(5-fluoro-1-methyl-1H-indol-3-yl)propan-2-yl]imidodicarbonimide Diamide] | 8% | – | > 10000 µM | 18%
4 | N=C(N)NC(=N)NCCCc1c[nH]c2ccccc12 [Ex 7, hydrochloride] | 7% | – | > 10000 µM | 36%
5 | CC(C)(CNC(=N)NC(=N)N)c1c[nH]c2ccccc12 [Ex 8] | 20% | – | > 1000 µM | 31%
6 | N=C(N)NC(=N)NCCc1c[nH]c2ccc(Cl)cc12 [Ex 9, 1-[2-(5-chloro-1H-indol-3-yl)ethyl]imidodicarbonimide diamide, trifluoroacetic acid salt] | 53% | 171 µM | 70 µM | –
7 | Cc1ccc2[nH]cc(CCNC(=N)NC(=N)N)c2c1 [Ex 10, 1-[2-(5-methyl-1H-indol-3-yl)ethyl]imidodicarbonimide diamide trifluoroacetic acid salt] | 43% | 2190 µM | 439 µM | –
8 | Cc1c(CCNC(=N)NC(=N)N)c2ccccc2n1C [Ex 16, 1-[2-(1,2-dimethyl-1H-indol-3-yl)ethyl]imidodicarbonimide diamide] | 36% | – | 1210 µM | 10%
9 | N=C(N)NC(=N)NCCc1c[nH]c2ccccc12 [Ex 17, 1-[2-(1H-indol-3-yl)ethyl]imidodicarbonimide diamide hydrochloride] | 54% | 4840 µM | > 5000 µM | –
10 | N=C(N)NC(=N)NCCc1c[nH]c2ccc([N+](=O)[O-])cc12 [Ex 18, 1-[2-(5-nitro-1H-indol-3-yl)ethyl]imidodicarbonimide diamide, trifluoroacetic acid salt] | 27% | – | 1410 µM | -26%
11 | N=C(N)NC(=N)NCCc1c[nH]c2cccnc12 [Ex 21, 1-(2-(1H-pyrrolo[3,2-b]pyridin-3-yl)ethyl)imidodicarbonimide diamide acetate] | 27% | 1540 µM | > 3000 µM | –
12 | N=C(N)NC(=N)NCCc1c[nH]c2ccncc12 [Ex 22, 1-(2-(1H-pyrrolo[3,2-c]pyridin-3-yl)ethyl)imidodicarbonimide diamide hydrochloride] | -7% | 2980 µM | 3240 µM | –
13 | CN(C)C(=N)NC(=N)NCCc1c[nH]c2cc(F)ccc12 [Ex 23, 3-(2-(6-fluoro-1H-indol-3-yl)ethyl)-1,1-dimethyl imidodicarbonimide diamide hydrochloride] | 4% | > 10000 µM | > 3000 µM | –
14 | Cc1[nH]c2cc(F)ccc2c1CCNC(=N)NC(=N)N [Ex 31, 1-[2-(6-fluoro-2-methyl-1H-indol-3-yl)ethyl]imidodicarbonimide diamide, trifluoroacetic acid salt] | 35% | 13400 µM | 4870 µM | –
15 | N=C(N)NC(=N)NCCc1c[nH]c2cc(F)c(Cl)cc12 [Ex 58, 1-[2-(5-chloro-6-fluoro-1H-indol-3-yl)ethyl]imidodicarbonimide diamide, trifluoroacetic acid salt] | – | 35 µM | 191 µM | –
16 | Cc1cccc2[nH]cc(CCNC(=N)NC(=N)N)c12 [Ex 60, 1-[2-(4-methyl-1H-indol-3-yl)ethyl]imidodicarbonimide diamide, trifluoroacetic acid salt] | – | 636 µM | 1640 µM | –
17 | N=C(N)NC(=N)NCCc1c[nH]c2cc(F)cc(F)c12 [Ex 61, 1-[2-(4,6-difluoro-1H-indol-3-yl)ethyl]imidodicarbonimide diamide, trifluoroacetic acid salt] | – | 62 µM | 333 µM | –
18 | CC(CNC(=N)NC(=N)N)c1c[nH]c2cc(F)ccc12 (stereo not shown) [Ex 62, 1-[2-(6-fluoro-1H-indol-3-yl)propyl]imidodicarbonimide diamide, trifluoroacetic acid salt] | – | 3430 µM | 3430 µM | –
19 | CC(C)(CNC(=N)NC(=N)N)c1c[nH]c2cc(F)ccc12 [Ex 63, 1-[2-(6-fluoro-1H-indol-3-yl)-2-methylpropyl]imidodicarbonimide diamide, trifluoroacetic acid salt] | – | 3790 µM | 1750 µM | –
20 | N=C(N)NC(=N)NCCc1c[nH]c2c(F)cc(Cl)cc12 [Ex 64, 1-[2-(5-chloro-7-fluoro-1H-indol-3-yl)ethyl]imidodicarbonimide diamide, trifluoroacetic acid salt] | – | 370 µM | 282 µM | –
21 | CN(CCc1c[nH]c2cc(F)ccc12)C(=N)NC(=N)N [Ex 65, 1-methyl-1-[2-(6-fluoro-1H-indol-3-yl)ethyl]imidodicarbonimide diamide, trifluoroacetic acid salt] | – | 354 µM | 8410 µM | –
22 | CN(C)C(=N)NC(=N)NCCc1c[nH]c2nc(F)ccc12 [Ex. 54, 3-(2-(6-fluoro-1H-pyrrolo[2,3-b]pyridin-3-yl)ethyl)-1,1-dimethyl imidodicarbonimide diamide trifluoroacetic acid salt] | – | 4950 µM | 4600 µM | –
